The values that follow come from patent US9193736B2, “PDE 10a inhibitors for the treatment of type II diabetes” (Janssen Pharmaceutica, NV, priority 2013, dated 2015).

By IC50 is commonly meant the concentration at which inhibition is half-maximal.

The target in assay [1] is Rat recombinant PDE10a (rPDE10a) (Rattus norvegicus (Rat), UniProt Q9QYJ6). Put plainly: In vitro assay PDE10a: rat recombinant PDE10a SPA with 3H-cAMP substrate, IC50. In kind it is biochemical. The following applies: 60 nM cAMP, read-out: rPDE10a2 IC50. The protocol: In Vitro Assay PDE10a Rat recombinant PDE10a (rPDE10a) was expressed in Sf9 cells using a recombinant rPDE10a baculovirus construct. Cells were harvested after 48 h of infection and the rPDE10a protein was purified by metal chelate chromatography on Ni-sepharose 6FF. Tested compounds were dissolved and diluted in 100% DMSO to a concentration 100 fold of the final concentration in the assay. […] The reaction was incubated for 60 min at rt. After incubation, the reaction was stopped with 20 μL of 17.8 mg/mL PDE SPA beads. […] For blank values the enzyme was omitted from the reaction and replaced by incubation buffer.
Rat recombinant PDE10a (rPDE10a), sequence (Q9QYJ6 whole entry): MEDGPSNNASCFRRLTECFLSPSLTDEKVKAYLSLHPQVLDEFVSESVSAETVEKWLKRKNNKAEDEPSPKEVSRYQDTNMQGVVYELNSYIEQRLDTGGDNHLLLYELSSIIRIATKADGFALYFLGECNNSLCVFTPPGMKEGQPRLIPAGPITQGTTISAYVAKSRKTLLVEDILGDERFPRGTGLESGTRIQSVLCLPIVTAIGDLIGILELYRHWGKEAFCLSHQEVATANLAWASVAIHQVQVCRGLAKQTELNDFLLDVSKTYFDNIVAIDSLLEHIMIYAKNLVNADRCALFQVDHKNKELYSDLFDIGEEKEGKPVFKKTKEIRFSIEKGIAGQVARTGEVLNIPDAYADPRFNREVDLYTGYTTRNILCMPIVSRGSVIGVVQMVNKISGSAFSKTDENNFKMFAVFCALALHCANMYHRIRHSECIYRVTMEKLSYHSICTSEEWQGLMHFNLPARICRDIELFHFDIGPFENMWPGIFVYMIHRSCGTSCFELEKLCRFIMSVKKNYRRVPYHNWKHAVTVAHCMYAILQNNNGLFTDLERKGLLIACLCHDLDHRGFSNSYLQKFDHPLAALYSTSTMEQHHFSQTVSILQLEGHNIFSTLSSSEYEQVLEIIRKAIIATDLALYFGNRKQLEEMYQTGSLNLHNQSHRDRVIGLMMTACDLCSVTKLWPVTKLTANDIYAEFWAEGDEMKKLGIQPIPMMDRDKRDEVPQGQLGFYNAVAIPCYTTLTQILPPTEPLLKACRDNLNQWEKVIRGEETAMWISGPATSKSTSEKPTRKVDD

For assay [2], the target named is Human recombinant PDE10A2 (Homo sapiens (Human), UniProt Q9Y233). Nature of the assay: In vitro hPDE10a: human recombinant PDE10A2 scintillation proximity assay, IC50. The class given is biochemical. Conditions: human recombinant PDE10A2, SPA, 60 nM cAMP; read-out: hPDE10a2 IC50. The essentials:
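Purified recombinant human PDE10A2 (Ni-sepharose) was assayed by SPA, counting [3H]-AMP product captured on yttrium silicate beads added in zinc sulphate stop solution. Inhibition was expressed as % of activity without compound, with a no-enzyme low control. Repeat data points were aggregated.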
(In general: In a scintillation proximity assay essentially only radioactivity close to the scintillant gives light.)

Where a name gives a salt, the structure may show the parent alone.

Human recombinant PDE10A2, sequence (Q9Y233 267-1055): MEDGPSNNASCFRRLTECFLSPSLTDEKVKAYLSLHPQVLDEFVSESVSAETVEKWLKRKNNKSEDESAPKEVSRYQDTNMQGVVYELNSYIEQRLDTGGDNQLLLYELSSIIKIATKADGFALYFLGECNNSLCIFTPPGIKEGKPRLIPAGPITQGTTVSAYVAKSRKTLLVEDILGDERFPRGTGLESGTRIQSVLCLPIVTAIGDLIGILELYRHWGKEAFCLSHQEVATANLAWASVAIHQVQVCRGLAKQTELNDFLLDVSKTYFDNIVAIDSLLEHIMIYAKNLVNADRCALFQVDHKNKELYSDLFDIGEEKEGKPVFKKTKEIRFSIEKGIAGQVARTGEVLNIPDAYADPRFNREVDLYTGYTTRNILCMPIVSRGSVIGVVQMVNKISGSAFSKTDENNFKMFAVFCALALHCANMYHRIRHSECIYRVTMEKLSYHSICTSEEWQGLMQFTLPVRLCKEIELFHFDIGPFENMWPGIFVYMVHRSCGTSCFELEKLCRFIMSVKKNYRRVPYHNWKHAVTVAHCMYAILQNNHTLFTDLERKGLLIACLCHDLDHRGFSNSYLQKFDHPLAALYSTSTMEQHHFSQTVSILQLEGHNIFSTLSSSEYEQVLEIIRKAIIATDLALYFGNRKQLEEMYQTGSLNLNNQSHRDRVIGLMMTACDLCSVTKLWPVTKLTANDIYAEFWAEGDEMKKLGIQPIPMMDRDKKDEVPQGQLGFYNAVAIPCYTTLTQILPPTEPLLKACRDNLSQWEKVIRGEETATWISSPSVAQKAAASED

Consider `c1cncc(-c2c(COc3ccc4ccccc4n3)nc3c(N4CCOCC4)ccnn23)c1` [Cpd 2, 4-(3-(pyridin-3-yl)-2-((quinolin-2-yloxy)methyl)imidazo[1,2-b]pyridazin-8-yl)morpholine], for which the values for the IC50 in assay [1] and in assay [2] were 141 nM and 245 nM, respectively.
In the same order, the values of `O=C(O)c1ccc(-c2c([C@@H]3C[C@@H]3c3ccc4ccccc4n3)nc3c(N4CCOCC4)cc(Cl)nn23)cc1` [Cpd 147, 4-(6-Chloro-8-morpholino-2-((1R,2S)-2-(quinolin-2-yl)cyclopropyl)imidazo[1,2-b]pyridazin-3-yl)benzoic acid trifluoroacetic acid salt] are 4 nM and 7 nM.
For `N#Cc1ccc(C#Cc2nc3c(N4CCOCC4)ccnn3c2-c2ccc(C(=O)O)cc2)nc1` [Cpd 96, 4-(2-((5-Cyanopyridin-2-yl)ethynyl)-8-morpholinoimidazo[1,2-b]pyridazin-3-yl)benzoic acid], in that order: 31 nM and 22 nM.
On to `c1ccc2nc(SCc3nc4c(N5CCOCC5)ccnn4c3-c3ccc(-c4nnn[nH]4)nc3)ccc2c1` [Cpd 32, 4-(3-(6-(1H-Tetrazol-5-yl)pyridin-3-yl)-2-((quinolin-2-ylthio)methyl)imidazo[1,2-b]pyridazin-8-yl)morpholine trifluoroacetic acid salt], for which the IC50 was 1 nM in assay [1] and 2 nM in assay [2].
Regarding `Oc1c(F)cc(-c2c(/C=C/c3ccc4ccccc4n3)nc3c(N4CCOCC4)ccnn23)cc1F` [compound 80, (E)-2,6-Difluoro-4-(8-morpholino-2-(2-(quinolin-2-yl)vinyl)imidazo[1,2-b]pyridazin-3-yl)phenol], the IC50 in assay [1] was 2 nM; in assay [2] it was less than 1 nM.
Regarding `CS(=O)(=O)Nc1ccc(-c2c(/C=C/c3ccc4ccccc4n3)nc3c(N4CCOCC4)ccnn23)cc1` [compound 47, (E)-N-(4-(8-Morpholino-2-(2-(quinolin-2-yl)vinyl)imidazo[1,2-b]pyridazin-3-yl)phenyl)methanesulfonamide], the results for the IC50 in assay [1] and in assay [2] were 11 nM and 14 nM, respectively.
As for `O=C(O)CCC(=O)N1CCN(c2c(/C=C/c3ccc4ccccc4n3)nc3c(N4CCOCC4)ccnn23)CC1` [compound 155, (E)-4-(4-(8-Morpholino-2-(2-(quinolin-2-yl)vinyl)imidazo[1,2-b]pyridazin-3-yl)piperazin-1-yl)-4-oxobutanoic acid], the IC50 in assay [1] is 3 nM; in assay [2], 5 nM.
Regarding `COc1cc(-c2c(C#Cc3ccc4ccccc4n3)nc3c(N4CCOCC4)ccnn23)ccc1C(=O)O` [compound 91, 2-Methoxy-4-(8-morpholino-2-(quinolin-2-ylethynyl)imidazo[1,2-b]pyridazin-3-yl)benzoic acid], the IC50 in assay [1] and in assay [2] was less than 1 nM throughout.
`COc1cc(-c2c(CCc3ccc4ccccc4n3)nc3c(N4CCOCC4)ccnn23)ccc1C(=O)O` [compound 69, 2-Methoxy-4-(8-morpholino-2-(2-(quinolin-2-yl)ethyl)imidazo[1,2-b]pyridazin-3-yl)benzoic acid]: the IC50 in assay [1] was determined as 4 nM; in assay [2] it was 6 nM.
Take `O=C(NO)c1cccc2nc(/C=C/c3cn4nccc(N5CCOCC5)c4n3)ccc12` [Cpd 118, N-Hydroxy-2-[(E)-2-(8-morpholin-4-ylimidazo[1,2-b]pyridazin-2-yl)ethenyl]quinoline-5-carboxamide]: the IC50 in assay [1] was 1 nM; in assay [2] it was less than 1 nM.
In the same order, the values of `O=C(O)c1ccc(Nc2c(/C=C/c3ccc4ccccc4n3)nc3c(N4CCOCC4)ccnn23)cc1` [Cpd 138, (E)-4-((8-Morpholino-2-(2-(quinolin-2-yl)vinyl)imidazo[1,2-b]pyridazin-3-yl)amino)benzoic acid] are 2 nM and 5 nM.
For `CS(=O)(=O)NC(=O)c1cccc2nc(/C=C/c3cn4nc(Cl)cc(N5CCOCC5)c4n3)ccc12` [Cpd 104, 2-[(E)-2-(6-Chloro-8-morpholin-4-ylimidazo[1,2-b]pyridazin-2-yl)ethenyl]-N-(methylsulfonyl)quinoline-5-carboxamide], in that order: 8 nM and 3 nM.
For `O=C(O)c1cc2ccccc2nc1/C=C/c1cn2nccc(N3CCOCC3)c2n1` [Cpd 144, 2-[(E)-2-(8-Morpholin-4-ylimidazo[1,2-b]pyridazin-2-yl)ethenyl]quinoline-3-carboxylic acid], the IC50 in assay [1] and in assay [2] was less than 1 nM throughout.
`COc1cccc(C#Cc2nc3c(N4CCOCC4)ccnn3c2-c2ccc(C(=O)O)cc2)n1` [Cpd 109, 4-(2-((6-Methoxypyridin-2-yl)ethynyl)-8-morpholinoimidazo[1,2-b]pyridazin-3-yl)benzoic acid]: the IC50 in assay [1] and in assay [2] was less than 1 nM each time.
With `c1ccc2nc(CNc3nc4c(N5CCOCC5)ccnn4c3-c3ccc(N4CCNCC4)nc3)ccc2c1` [Cpd 11, 8-Morpholino-3-(6-(piperazin-1-yl)pyridin-3-yl)-N-(quinolin-2-ylmethyl)imidazo[1,2-b]pyridazin-2-amine trifluoroacetic acid salt], the figures for the IC50 in assay [1] and in assay [2] were 25 nM and 55 nM, respectively.
Consider `O=C(O)c1ccc(-c2c(C#Cc3ccc(C(F)(F)F)cn3)nc3c(N4CCOCC4)ccnn23)cc1` [Cpd 97, 4-(8-Morpholino-2-((5-(trifluoromethyl)pyridin-2-yl)ethynyl)imidazo[1,2-b]pyridazin-3-yl)benzoic acid], for which the values for the IC50 in assay [1] and in assay [2] were 20 nM and 22 nM, respectively.
For the compound `O=C(O)c1cccc2nc(/C=C/c3nc4c(N5CCOCC5)ccnn4c3-c3cccnc3)ccc12` [Cpd 137, (E)-2-(2-(8-Morpholino-3-(pyridin-3-yl)imidazo[1,2-b]pyridazin-2-yl)vinyl)quinoline-5-carboxylic acid sodium salt], the IC50 turned out to be 1 nM in assay [1] and 3 nM in assay [2].
In the case of `Cc1ccc(-c2c(COc3ccc4ccccc4n3)nc3c(N4CCOCC4)ccnn23)cn1` [Cpd 1, 4-(3-(6-methylpyridin-3-yl)-2-((quinolin-2-yloxy)methyl)imidazo[1,2-b]pyridazin-8-yl)morpholine methane sulfonic acid], the IC50 in assay [1] was 46 nM; in assay [2], 115 nM.
In the same order, the values of `O=C(O)CNC(=O)c1ccc(-c2c(/C=C/c3ccc4ccccc4n3)nc3c(N4CCOCC4)ccnn23)cc1` [Cpd 66, (E)-2-(4-(8-Morpholino-2-(2-(quinolin-2-yl)vinyl)imidazo[1,2-b]pyridazin-3-yl)benzamido)acetic acid] are 5 nM and 9 nM.
On to `COc1cccc(/C=C/c2nc3c(N4CCOCC4)ccnn3c2-c2ccc(C(=O)O)cc2)n1` [Cpd 133, 4-{2-[(E)-2-(6-Methoxypyridin-2-yl)ethenyl]-8-morpholin-4-ylimidazo[1,2-b]pyridazin-3-yl}benzoic acid], for which the IC50 is 70 nM in assay [1] and 62 nM in assay [2].
On to `Clc1cc(N2CCOCC2)c2nc([C@H]3C[C@H](c4ccc5ccccc5n4)C3)cn2n1` [Cpd 130, 2-[trans-3-(6-Chloro-8-morpholin-4-ylimidazo[1,2-b]pyridazin-2-yl)cyclobutyl]quinoline], for which the IC50 in assay [1] amounted to 30 nM; in assay [2], 19 nM.
On to `O=C(O)c1ccc(-c2c(/C=C/c3nc4ccccc4s3)nc3c(N4CCOCC4)ccnn23)cc1` [Cpd 90, (E)-4-(2-(2-(Benzo[d]thiazol-2-yl)vinyl)-8-morpholinoimidazo[1,2-b]pyridazin-3-yl)benzoic acid], for which the IC50 in assay [1] is 17 nM; in assay [2] it was 19 nM.
Consider `O=c1ncn(-c2ccc(-c3c(CCc4ccc5ccccc5n4)nc4c(N5CCOCC5)ccnn34)cc2)[nH]1` [Cpd 59, 1-(4-(8-Morpholino-2-(2-(quinolin-2-yl)ethyl)imidazo[1,2-b]pyridazin-3-yl)phenyl)-1,2-dihydro-1,2,4-triazol-3-one trifluoroacetic acid salt], for which the IC50 in assay [1] came out at 6 nM; in assay [2] it was 5 nM.
Turning to `O=C(O)C1CCN(c2c(/C=C/c3ccc4ccccc4n3)nc3c(N4CCOCC4)ccnn23)CC1` [Cpd 131, (E)-1-(8-Morpholino-2-(2-(quinolin-2-yl)vinyl)imidazo[1,2-b]pyridazin-3-yl)piperidine-4-carboxylic acid trifluoroacetic acid salt], the IC50 in assay [1] is 5 nM; in assay [2], 7 nM.
In the same order, the values of `C(=C\c1nc2c(N3CCOCC3)ccnn2c1-c1ccc(N2CCNCC2)nc1)/c1ccc2ccccc2n1` [Cpd 177, (E)-4-(3-(6-(piperazin-1-yl)pyridin-3-yl)-2-(2-(quinolin-2-yl)vinyl)imidazo[1,2-b]pyridazin-8-yl)morpholine trifluoroacetic acid salt] are 10 nM and 21 nM.
With `O=C(O)c1ccc(-c2c(C#Cc3ccc4ccccc4n3)nc3c(N4CCOCC4)ccnn23)s1` [Cpd 85, 5-(8-Morpholino-2-(quinolin-2-ylethynyl)imidazo[1,2-b]pyridazin-3-yl)thiophene-2-carboxylic acid], the IC50 in assay [1] and in assay [2] was less than 1 nM throughout.
Regarding `COc1ccc(C#Cc2nc3c(N4CCOCC4)ccnn3c2-c2ccc(C(=O)O)cc2)nc1` [Cpd 110, 4-(2-((5-Methoxypyridin-2-yl)ethynyl)-8-morpholinoimidazo[1,2-b]pyridazin-3-yl)benzoic acid], the IC50 in assay [1] and in assay [2] was 2 nM each time.
